Results reported in ChEMBL document CHEMBL3885861, “Open TG-GATES”.

Organism: Rattus norvegicus
Assay: Open TG-GATES - Regimen: Single
Assay type: toxicity, organism-based, Sprague-Dawley
Parameters: regimen Single, gender Male, age 6 weeks
Settings: in vivo, po, 24 h, route gavage; for Bas / Eos / Hb / Ht / Lym / MCH / MCHC / MCV / Mono / Neu / Plat / RBC / Ret / WBC: tissue Blood; for KIDNEY_L / KIDNEY_R / KIDNEY_TOTAL: tissue Kidney; for LIVER: tissue Liver; for A/G / ALP / ALT / AST / BUN / CRE / Ca / Cl / DBIL / GLC / IP / K / LDH / Na / PL / RALB / TBIL / TC / TG / TP / gamma-GTP: tissue Plasma

## O=[N+]([O-])c1ccc2c(c1)Cc1ccccc1-2 [2-NITROFLUORENE]
0 mg/kg, dose level Control
  TERMINAL_BW: 226.9 g
  Bas: 0%
  Eos: 0.8%
  Hb: 12.7 g/dL
  Ht: 38.9%
  Lym: 78.4%
  MCH: 20.5 pg
  MCHC: 32.5%
  MCV: 63.1 fL
  Mono: 3.2%
  Neu: 16.8%
  Plat: 121 x10_4/uL
  RBC: 618 x10_4/ul
  Ret: 8.6%
  WBC: 96.1 x10_2/uL
  KIDNEY_L: 0.9 g
  KIDNEY_R: 0.9 g
  KIDNEY_TOTAL: 1.9 g
  LIVER: 10.2 g
  A/G: 1.1
  ALP: 1444.8 IU/L
  ALT: 41.6 IU/L
  AST: 69.6 IU/L
  BUN: 16.6 mg/dL
  CRE: 0.2 mg/dL
  Ca: 10.7 mg/dL
  Cl: 104.2 meq/L
  DBIL: 0.006 mg/dL
  GLC: 193.2 mg/dL
  IP: 6.8 mg/dL
  K: 4.1 meq/L
  LDH: 153.2 IU/L
  Na: 141.1 meq/L
  PL: 149 mg/dL
  RALB: 2.8 g/dL
  TBIL: 0 mg/dL
  TC: 79.8 mg/dL
  TG: 105.8 mg/dL
  TP: 5.4 g/dL
  gamma-GTP: 0.7 IU/L
100 mg/kg, dose level Low
  TERMINAL_BW: 220.2 g
  Bas: 0%
  Eos: 0.2%
  Hb: 12.8 g/dL
  Ht: 39.6%
  Lym: 79.6%
  MCH: 20.4 pg
  MCHC: 32.5%
  MCV: 62.8 fL
  Mono: 3.6%
  Neu: 15.4%
  Plat: 123.5 x10_4/uL
  RBC: 631.6 x10_4/ul
  Ret: 8.1%
  WBC: 113.4 x10_2/uL
  KIDNEY_L: 0.9 g
  KIDNEY_R: 1 g
  KIDNEY_TOTAL: 1.9 g
  LIVER: 10.1 g
  A/G: 1.2
  ALP: 1937 IU/L
  ALT: 39.8 IU/L
  AST: 82.2 IU/L
  BUN: 15.6 mg/dL
  CRE: 0.2 mg/dL
  Ca: 10.5 mg/dL
  Cl: 105.3 meq/L
  DBIL: 0.02 mg/dL
  GLC: 174.6 mg/dL
  IP: 6.7 mg/dL
  K: 4.3 meq/L
  LDH: 259.2 IU/L
  Na: 139.7 meq/L
  PL: 124.6 mg/dL
  RALB: 2.8 g/dL
  TBIL: 0.012 mg/dL
  TC: 64.2 mg/dL
  TG: 64.7 mg/dL
  TP: 5.2 g/dL
  gamma-GTP: 0.7 IU/L
300 mg/kg, dose level Middle
  TERMINAL_BW: 216.7 g
  Bas: 0%
  Eos: 0.4%
  Hb: 13.1 g/dL
  Ht: 40.4%
  Lym: 73.4%
  MCH: 20.4 pg
  MCHC: 32.6%
  MCV: 62.6 fL
  Mono: 6%
  Neu: 18.2%
  Plat: 124.8 x10_4/uL
  RBC: 645 x10_4/ul
  Ret: 8.6%
  WBC: 91 x10_2/uL
  KIDNEY_L: 1 g
  KIDNEY_R: 1 g
  KIDNEY_TOTAL: 1.9 g
  LIVER: 9.6 g
  A/G: 1.2
  ALP: 1406.4 IU/L
  ALT: 35 IU/L
  AST: 83.2 IU/L
  BUN: 16.3 mg/dL
  CRE: 0.2 mg/dL
  Ca: 10.2 mg/dL
  Cl: 104.9 meq/L
  DBIL: 0.02 mg/dL
  GLC: 165.6 mg/dL
  IP: 7.7 mg/dL
  K: 4.5 meq/L
  LDH: 203 IU/L
  Na: 139.3 meq/L
  PL: 115.2 mg/dL
  RALB: 2.8 g/dL
  TBIL: 0.022 mg/dL
  TC: 61.2 mg/dL
  TG: 47.3 mg/dL
  TP: 5.2 g/dL
  gamma-GTP: 0.7 IU/L
1000 mg/kg, dose level High
  TERMINAL_BW: 211.8 g
  Bas: 0%
  Eos: 0.4%
  Hb: 13.6 g/dL
  Ht: 41.6%
  Lym: 79.4%
  MCH: 21 pg
  MCHC: 32.7%
  MCV: 64.2 fL
  Mono: 4%
  Neu: 15.6%
  Plat: 127.8 x10_4/uL
  RBC: 647.8 x10_4/ul
  Ret: 8.3%
  WBC: 75.6 x10_2/uL
  KIDNEY_L: 0.9 g
  KIDNEY_R: 0.9 g
  KIDNEY_TOTAL: 1.8 g
  LIVER: 9.6 g
  A/G: 1.1
  ALP: 1276 IU/L
  ALT: 29.8 IU/L
  AST: 74.4 IU/L
  BUN: 12.8 mg/dL
  CRE: 0.1 mg/dL
  Ca: 10.3 mg/dL
  Cl: 104.8 meq/L
  DBIL: 0.008 mg/dL
  GLC: 183.8 mg/dL
  IP: 7.6 mg/dL
  K: 4.1 meq/L
  LDH: 313.2 IU/L
  Na: 141 meq/L
  PL: 112.4 mg/dL
  RALB: 2.9 g/dL
  TBIL: 0.01 mg/dL
  TC: 57.2 mg/dL
  TG: 47.6 mg/dL
  TP: 5.5 g/dL
  gamma-GTP: 0.8 IU/L
